Assay results reported in US20240124460A1, “METHODS AND COMPOSITIONS FOR TARGETED PROTEIN DEGRADATION” (Ranok Therapeutics (Hangzhou) Co. Ltd., priority 2020, published 2024).

Experiments:
[1] = test system: U-87 MG human glioblastoma; test: U87 MG CCK-8 proliferation assay; format: cell-based; conditions: Homo sapiens, U-87 MG, 72 h, U-87 MG cells, read-out: U87MG CCK-8
In short: (§1)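 Inhibition is derived from CCK-8 absorbance of compound-treated cells relative to DMSO-treated cells, after subtracting a cell-free medium/DMSO background. Test concentrations span 20 μM down to 1.02 nM in 3-fold steps, and lines are cultured as ATCC recommends.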

[2] = test system: MV-4-11 human acute myeloid leukemia; test: MV-4-11 CCK-8 proliferation assay; format: cell-based; conditions: Homo sapiens, MV4-11; MV-4-11 cells, 72 hr
In short: as §1

HSP90α protein = target: T1, HSP90α protein (Homo sapiens, UniProt P07900); test: HSP90α-binding FP (BODIPY) assay; conditions: FP competition with BODIPY-labeled RNK04010
T1 construct: purchased BPS Bioscience #50298
Description: Binding of test compounds to HSP90α protein was measured by fluorescent polarization (FP) using the HSP90α (N-terminal) Assay Kit (BPS Bioscience, #50298), following the manufacturer's instructions, except as noted. Fluorescently labeled HSP90-binding compounds, either the provided FITC-geldanamycin (5 nM final concentration) or RNK04010, a triazolone-based HSP90 binding small molecule labeled with BODIPY through a piperazine-phenyl linker (5 nM final concentration) were employed. A 2.5-fold serial dilution of each test compound ranging from 20 μM to 5.2 nM was assayed for binding to HSP90α. After the final step of adding HSP90α protein to each assay well, plates were mixed by brief shaking, incubated at 25° C. for 120 min for FITC-geldanamycin or 300 min for RNK04010, and fluorescence was measured using a PerkinElmer EnVision Plate Reader.

Row | EC50 [1] [nM] | EC50 [2] [nM] | IC50 (HSP90α protein) [nM] | SMILES
1 | < 100 | < 100 | < 100 | CCOc1cc(N2CCC(C(=O)N3CCC(N4CCN(Cc5ccc(-n6c(O)nnc6-c6cc(C(C)C)c(O)cc6O)cc5)CC4)CC3)CC2)ccc1Nc1ncc2c(n1)N(S(C)(=O)=O)c1ccccc1C(=O)N2C [Compound 064, 2-((4-(4-(4-(4-(4-(3-(2,4-dihydroxy-5-isopropylphenyl)-5-hydroxy-4H-1,2,4-triazol-4-yl)benzyl)piperazin-1-yl)piperidine-1-carbonyl)piperidin-1-yl)-2-ethoxyphenyl)amino)-5-methyl-11-(methylsulfonyl)-5,11-dihydro-6H-benzo[e]pyrimido[5,4-b][1,4]diazepin-6-one]
2 | > 1000 | 100 to 1000 | > 1000 | CCOc1cc(N2CCC(C(=O)NCCOCCOc3ccc(Nc4ccc(-n5nc(C(F)(F)F)c6c5CC(C)(C)CC6=O)cc4C(N)=O)cc3)CC2)ccc1Nc1ncc2c(n1)N(S(C)(=O)=O)c1ccccc1C(=O)N2C [Compound 067, N-(2-(2-(4-((2-carbamoyl-4-(6,6-dimethyl-4-oxo-3-(trifluoromethyl)-4,5,6,7-tetrahydro-1H-indazol-1-yl)phenyl)amino)phenoxy)ethoxy)ethyl)-1-(3-ethoxy-4-((5-methyl-11-(methylsulfonyl)-6-oxo-6,11-dihydro-5H-benzo[e]pyrimido[5,4-b][1,4]diazepin-2-yl)amino)phenyl)piperidine-4-carboxamide]
3 | > 1000 | 100 to 1000 | > 1000 | CCOc1cc(N2CCC(C(=O)N3CCC(CN4CCN(CCCOc5ccc(Nc6ccc(-n7nc(C(F)(F)F)c8c7CC(C)(C)CC8=O)cc6C(N)=O)cc5)CC4)CC3)CC2)ccc1Nc1ncc2c(n1)N(S(C)(=O)=O)c1ccccc1C(=O)N2C [Compound 068, 5-(6,6-dimethyl-4-oxo-3-(trifluoromethyl)-4,5,6,7-tetrahydro-1H-indazol-1-yl)-2-((4-(3-(4-((1-(1-(3-ethoxy-4-((5-methyl-11-(methylsulfonyl)-6-oxo-6,11-dihydro-5H-benzo[e]pyrimido[5,4-b][1,4]diazepin-2-yl)amino)phenyl)piperidine-4-carbonyl)piperidin-4-yl)methyl)piperazin-1-yl)propoxy)phenyl)amino)benzamide]
4 | 100 to 1000 | < 100 | 100 to 1000 | CCOc1cc(N2CCC(C(=O)N3CCC(N4CCN(Cc5ccc(-n6c(O)nnc6-c6cc(C(C)C)c(O)cc6O)cc5C(F)(F)F)CC4)CC3)CC2)ccc1Nc1ncc2c(n1)N(S(C)(=O)=O)c1ccccc1C(=O)N2C [Compound 069, 2-((4-(4-(4-(4-(4-(3-(2,4-dihydroxy-5-isopropylphenyl)-5-hydroxy-4H-1,2,4-triazol-4-yl)-2-(trifluoromethyl)benzyl)piperazin-1-yl)piperidine-1-carbonyl)piperidin-1-yl)-2-ethoxyphenyl)amino)-5-methyl-11-(methylsulfonyl)-5,11-dihydro-6H-benzo[e]pyrimido[5,4-b][1,4]diazepin-6-one]
5 | > 1000 | 100 to 1000 | 100 to 1000 | CCOc1cc(N2CCC(C(=O)NCc3ccc(-n4c(O)nnc4-c4cc(CC)c(O)cc4O)cc3)CC2)ccc1Nc1ncc2c(n1)N(S(C)(=O)=O)c1ccccc1C(=O)N2C [Compound 071, 1-(3-ethoxy-4-((5-methyl-11-(methylsulfonyl)-6-oxo-6,11-dihydro-5H-benzo[e]pyrimido[5,4-b][1,4]diazepin-2-yl)amino)phenyl)-N-(4-(3-(5-ethyl-2,4-dihydroxyphenyl)-5-hydroxy-4H-1,2,4-triazol-4-yl)benzyl)piperidine-4-carboxamide]
